Source: patent publication US8168747B2, “On-growth inhibiting compounds” (Viogard AB, priority 2002, dated 2012)
“Also recorded” adds a separate entry of the source.

Assays:
[1] = system: Helicoverpa punctigera; conditions: feeding trial, cited from earlier work
[2] = system: B. improvisus; experiment: Reversibility test: cyprids moved to fresh seawater; format: in vivo, Balanus improvisus; conditions: cyprids from 2.5 μM moved to fresh sea water; five days
Experimental: (§1) The brood stock of adult barnacles (B. improvisus, Darwin 1854) were allowed to settle on plexiglass panels in the sea on a raft outside Tjärnö Marine Biological Laboratory (58° 53′ N, 11° 8′ E). Cleaned from epiphytes they were brought to the laboratory and immediately placed in trays with running seawater (salinity […]). When regularly fed, with nauplii of Artemia salina, B. improvisus will spawn throughout the year. For larval rearing we used the method according to Berntsson et al., described in “Reduction of barnacle recruitment on micro-textured surfaces: Analysis of effective topographic characteristics and evaluation of skin friction”, Biofouling 16, 245-261. The experiment for the evaluation of the effect on settlement and mortality was performed using polystyrene Petri dishes (Ø48 mm) to which 10 ml of the peptide dissolved to different concentrations in filtered seawater (0.2 μm, 32±1%) was added. Competent cyprids (20±2 ind.) were added to each dish in four replicates and dishes with filtered seawater served as controls. Dishes were maintained for 3-4 days in room temperature after which they were examined under a stereo microscope for attached and metamorphosed individuals and also, for dead cyprids.
Half of the number of cyprids in each petri dish incubated at the highest tested concentration, 2.5 μM, were moved to a petri dish containing 10 ml of fresh seawater. […]

[3] = system: B. improvisus; experiment: Larval bioassay: settlement and mortality of barnacle cyprids; format: in vivo, Balanus improvisus
Experimental: as §1
Results are reported as means±standard error and using 1-factor analysis of variance (ANOVA).

Row | Substance | mortality of insect larvae ([1]; over time) | growth and development of the insect larvae [1] | mortality in reversibility test [2] | settlement ([3]; 0.0025 μM (lowest tested concentration), 3-4 days, control 67±3%) [%] | settlement ([3]; 0.025 μM, 3-4 days) [%] | inhibition of settlement ([3]; 0.25 μM, 3-4 days) | mortality compared to the control ([3]; all tested concentrations up to 2.5 μM, control saltwater only)
1 | kalata B1: cyclotide with potent insecticidal activities reported by Jennings and coworkers (cyclo(GLPVCGETCVGGTCNTPGCTCSWPVCTRN); not fully specified (bridges); cysteine pairing not given here; UniProt P56254 89-117, looked up) | increase in mortality over time | greatly affected |  |  |  |  | 
2 | cyclo(VWIPCISSAIGCSCKSKVCYRNGIPCGESC) (head-to-tail cyclic) [cycloviolacin O2] |  |  | No increase in mortality was observed | 68±3 | 21±0.5 | complete inhibition of settlement; also recorded: complete inhibition of fouling | No one of the tested concentrations showed an increase in mortality; also recorded: No increase in mortality could be detected
